# Measurements as given in US20060051295A1, “Estrogen receptor interaction with a transcription factor” (priority 2002, published 2006).
# Columns and labels:
# cRel = experiment: Yeast two-hybrid cRel, no partner; assay type: cell-based
# Description: A yeast two-hybrid assay is a cellular method to quantify the degree of interaction between two proteins. This is done by producing constructs that encode for fusion proteins of the two proteins to be studied, in this case ER and c-Rel, with either the transactivating or DNA binding part of the Gal4. The transactivating and DNA binding part of gal are separately not capable of inducing reporter activity of a gal4-responsive β-galactosidase reporter construct. Due to the interaction of the two proteins the transactivating and DNA binding parts of Gal4 will come in close proximity and as a result induction of a gal-responsive reporter will occur. More specificcally, in this embodiment of the invention the estrogen receptor is fused to the DNA binding domain (DBD) of Gal4, whereas c-Rel is fused to the activation domain (AD) of Gal4. The ER/Gal4-DBD fusion protein will bind to Gal4 response elements that are upstream of the reporter gene β-galactosidase in the yeast strain. Interaction between ER and c-Rel is compound dependent, therefore increasing concentrations of compound in the in vitro system will increase the number of ER and cRel molecules that interact, that can be measured as an increase of β-galactosidase reporter activity until saturation levels are reached. The amount of β-galactosidase reporter activity therefore is a measure for the degree of interaction between estrogen receptor and c-Rel.
# Table 5. […] In this assay format, ERα (or ERβ) was fused to the DNA binding domain of GAL4 whereas c-Rel (or RelA) was fused to the activation domain of GAL4. Interaction between ER and NF-κB yields a transcriptionally active complex, that induces the LacZ reporter gene which results in quantifiable β-galactosidase activity. n.d. means: not determined.
# pKCRE-ERα, pKCRE-ERβ and pNGV1-GR contain the human wild-type estrogen receptor α (ERα), ERβ or GR respectively under control of the SV40 promoter. The pCMV4-c-Rel expression vector was produced by cloning of the coding region of c-Rel into the pCMV4 vector (Andersson et al., 1989). pGL3-ELAM, pGL3-VCAM and pGL3-ICAM have been constructed based on PCR using the sequences as outlined in appendix 1. The luciferase reporter plasmid 3*NF-κB-TK was constructed by inserting three repeats of the NF-κB binding site from the ICAM promoter (van de Stolpe et al.; J. Biol Chem. 269: 6185-6192. 1994) in front of the herpes simplex virus thymidine kinase (HSV-TK) promoter. The TK promoter was cloned into the Bgl II-site of pGL3-basic (Promega). The triple repeat of NF-κB binding sites was constructed by annealing the oligonucleotide primers 5′-[…]-3′ and 5′-[…]-3′ followed by PRC amplification and subcloning in the pCR™2.1 vector. The insert was excised using HindIII, blunted with Klenow DNA polymerase and ligated into the SmaI site of pGL3-tk-luc. 4xERE-TATA Luc (plasmid nr. 460) contains four repeats of an estrogen responsive element followed by a TATA box and a luciferase gene. The pSV-β-Galactosidase (pSVβ) control vector (Promega) served as a positive control vector for monitoring transfection efficiencies of mammalian cells. The SV40 early promoter and enhancer drive transcription of the LacZ gene which encodes the β-Galactosidase enzyme. The yeast 2-hybrid constructs pGAD424-ERα, pGAD424-ERαdAB and pGAD424-ERβ were constructed by cloning respectively the human ERα, the ERα without the AB domain and the human ERβ cDNA in pGAD424. pGAD424-ERα LBD was constructed by cloning the LBD of ERα, obtained by PCR, in the EcoRI and SalI sites of pGAD424 vector. pGBT9-c-Rel was constructed by cloning the c-Rel fragment, obtained by PCR on pCMV4-c-Rel in the EcoRI and BamHI sites of pGBT9. The p65/RelA cDNA was obtained by PCR on the pCMV4-p65.
# cRel + ER beta = experiment: Transrepression of c-Rel induced reporters, U-2 OS co-transfected with ERβ; assay type: cell-based, human
# Experimental: Next was determined whether transrepression by ER is limited to particular NF-κB types, such as c-Rel or RelA, by overexpression of these NF-κB proteins in U-2 OS cells (Table 2). Again, the promoter-reporter constructs for the E-selectin, ICAM and VCAM genes were used in these experiments. Significant activation of these reporters by overexpression of c-Rel was observed. This activation was strongly and reproducibly transrepressed by both ERα and ERβ (Table 2).
# Table 2. Estrogen-dependent transrepression of the promoters from E-selectin, VCAM and ICAM and a synthetic NF-κB responsive reporter, measured as the amount of luciferase activity. Transient (co-)transfections of ERα (or ERβ) and reporter were performed in U-2 OS cells. Reporter activity was induced by cellular exposure to Il-1β or by co-transfection of the NF-κB genes c-Rel or RelA. […] For detailed information on the composition of the reporters used, see appendix 1. The hyphen (-) in the table indicates the test with cells without transfected cDNA and no additives in medium; n.d. means: not determined.
# For transient transfections, cells were seeded in 6-well plates (2.10^5 cells/well). After two or three days the cells were transfected with reporter, expression vectors and β-galactosidase control vector. Two different experimental settings were used. For testing transrepression of IL-1β induced promoter activity, cells were transfected with 1 μg reporter construct, 1 μg expression vector (containing either ERα, ERβ or GR), and 0.25 μg of β-galactosidase control plasmid. For testing transrepression in combination with c-Rel or ReLA overexpression, cells were transfected with 1 μg reporter construct, 1 μg expression vector (containing either ERα, ERβ or GR) and 0.1 or 1.0 μg expression vector containing c-Rel or RelA and 0.25 μg of β-galactosidase control vector. Equivalent amounts of DNA were obtained by adding the appropriate expression vector that lacks an insert. Transient transfection was performed using lipofectin reagent (Life Technologies). […] The transfected cells were incubated overnight with test compounds prior to cell lysis. Measurement of luciferase and P-galactosidase activity were performed using respectively the luciferase assay system (Promega) and Galacto-light plus (Tropix) according to the manufacturers' protocols and measured on the Victor 1420 multilabel counter, Wallac. Detection of β-galactosidase activity was used as a control for transfection efficiency.
structure (smiles),measurement,setting,value
"C[C@]12CC[C@@H]3c4ccc(O)cc4CC[C@H]3[C@@H]1CC[C@@H]2O [Org E2, 17β-estradiol]",β-galactosidase activity,cRel; E2 0.0003 nM,1251
same,β-galactosidase activity,cRel; E2 0.003 nM,1135
same,β-galactosidase activity,cRel; E2 0.01 nM,1093
same,β-galactosidase activity,cRel; E2 0.03 nM,1202
same,β-galactosidase activity,cRel; E2 0.1 nM,1204
same,β-galactosidase activity,cRel; E2 0.3 nM,1202
same,β-galactosidase activity,cRel; E2 1 nM,1145
same,β-galactosidase activity,cRel; E2 3 nM,1246
same,β-galactosidase activity,cRel; E2 10 nM,1146
same,β-galactosidase activity,cRel; E2 30 nM,1411
same,β-galactosidase activity,cRel; E2 100 nM,1261
same,"luciferase activity, ELAM+ reporter",cRel + ER beta,3708
same,"luciferase activity, ELAM− reporter",cRel + ER beta,1495
same,"luciferase activity, ICAM reporter",cRel + ER beta,1611
same,"luciferase activity, VCAM reporter",cRel + ER beta,882
